What was measured:
CYP 2C9 = biological target: T1, CYP 2C9 (Homo sapiens, UniProt P11712); assay: CYP inhibition in human liver microsomes, 2C9; format: in vitro ADME; conditions: pH 7.4, @ 10 μM concn
T1 construct: from tissue; host or cells: human liver microsomes
Method in brief: (§1)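 Human liver microsomes in 100 mM phosphate pH 7.4 with CYP-specific probe substrate were incubated with test compound at […] and 10 μM, started with 1 mM NADPH at 37° C. Reactions were stopped with acetonitrile, and marker-reaction metabolites were quantified by LC-MS/MS. Final solvent was ≤0.2%.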

CYP 1A2 = biological target: T2, CYP 1A2 (Homo sapiens, UniProt P05177); assay: CYP inhibition in human liver microsomes, 1A2; format: in vitro ADME; conditions: pH 7.4, @ 10 μM concn
T2 construct: from tissue; host or cells: human liver microsomes
T2 sequence (P05177 1-516): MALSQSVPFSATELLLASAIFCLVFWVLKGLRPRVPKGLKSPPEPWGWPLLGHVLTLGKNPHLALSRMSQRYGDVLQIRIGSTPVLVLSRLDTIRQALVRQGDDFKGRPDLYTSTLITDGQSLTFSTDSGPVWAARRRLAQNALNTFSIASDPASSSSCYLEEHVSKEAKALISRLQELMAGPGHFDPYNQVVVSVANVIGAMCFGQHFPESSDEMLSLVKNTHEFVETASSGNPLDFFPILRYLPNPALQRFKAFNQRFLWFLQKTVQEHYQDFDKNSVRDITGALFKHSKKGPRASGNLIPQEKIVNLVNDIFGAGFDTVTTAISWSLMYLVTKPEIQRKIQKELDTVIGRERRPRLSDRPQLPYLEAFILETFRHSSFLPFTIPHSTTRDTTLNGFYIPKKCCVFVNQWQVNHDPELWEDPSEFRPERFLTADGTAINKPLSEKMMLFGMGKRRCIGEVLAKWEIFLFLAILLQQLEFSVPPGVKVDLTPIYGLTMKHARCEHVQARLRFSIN
Method in brief: as §1

CYP 2D6 = biological target: T3, CYP 2D6 (Homo sapiens, UniProt P10635); assay: CYP inhibition in human liver microsomes, 2D6; format: in vitro ADME; conditions: pH 7.4, @ 10 μM concn
T3 construct: from tissue; host or cells: human liver microsomes
T3 sequence (P10635 whole entry): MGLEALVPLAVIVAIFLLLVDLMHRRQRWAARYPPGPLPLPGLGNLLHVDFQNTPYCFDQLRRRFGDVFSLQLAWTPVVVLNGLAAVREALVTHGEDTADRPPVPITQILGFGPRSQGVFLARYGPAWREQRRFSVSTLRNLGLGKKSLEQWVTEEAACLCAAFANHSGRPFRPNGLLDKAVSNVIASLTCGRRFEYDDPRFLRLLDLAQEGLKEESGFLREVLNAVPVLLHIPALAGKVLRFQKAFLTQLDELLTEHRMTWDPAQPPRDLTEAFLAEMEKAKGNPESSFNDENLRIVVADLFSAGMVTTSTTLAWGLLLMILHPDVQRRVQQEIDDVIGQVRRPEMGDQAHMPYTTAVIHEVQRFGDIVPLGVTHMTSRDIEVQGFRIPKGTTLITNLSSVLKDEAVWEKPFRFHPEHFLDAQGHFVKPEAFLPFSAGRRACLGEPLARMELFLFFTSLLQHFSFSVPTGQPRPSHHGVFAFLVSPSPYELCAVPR
Method in brief: as §1

TMD-8 cells = assay: Diffused large B cell lymphoma xenografts using TMD-8 cell line; format: in vivo, Female SCID mice; conditions: Dose: 10 mpk, po, SCID mice, Mean ± SD, n = 8
Description: All the animal experiments were carried out in female rats and mice, bred in-house. Animals were housed in groups of 6 animals per cage, for a week, in order to habituate them to vivarium conditions (25±4° C., 60-65% relative humidity, 12: 12 h light: dark cycle, with lights on at 7.30 am). All the animal experiments were carried out according to the internationally valid guidelines following approval by the ‘Zydus Research Center animal ethical committee’.
Diffused Large B Cell Lymphoma Xenografts Using TMD-8 Cell Line
Female SCID mice were inoculated sc with 10×10^6 TMD-8 cells in 0.1 mL of PBS to the right flank. Animals were observed twice weekly for occurrence of tumor. Once the tumors became palpable (around 100 mm^3) around 14 days after injection, treatment was initiated via oral route. Tumor volume was determined every alternate day using digital calipers and the tumor volume was calculated using the formula: [length/2]×[width^2]. Body weights of the animals were also recorded 3 times a week as a measure of treatment related side effect. Treatment was continued for two more weeks and inhibition of tumor volume compared to vehicle control was considered as efficacy endpoint.

CYP 2C8 = biological target: T4, CYP 2C8 (Homo sapiens, UniProt P10632); assay: CYP inhibition in human liver microsomes, 2C8; format: in vitro ADME; conditions: pH 7.4, @ 10 μM concn
T4 construct: from tissue; host or cells: human liver microsomes
T4 sequence (P10632 1-490): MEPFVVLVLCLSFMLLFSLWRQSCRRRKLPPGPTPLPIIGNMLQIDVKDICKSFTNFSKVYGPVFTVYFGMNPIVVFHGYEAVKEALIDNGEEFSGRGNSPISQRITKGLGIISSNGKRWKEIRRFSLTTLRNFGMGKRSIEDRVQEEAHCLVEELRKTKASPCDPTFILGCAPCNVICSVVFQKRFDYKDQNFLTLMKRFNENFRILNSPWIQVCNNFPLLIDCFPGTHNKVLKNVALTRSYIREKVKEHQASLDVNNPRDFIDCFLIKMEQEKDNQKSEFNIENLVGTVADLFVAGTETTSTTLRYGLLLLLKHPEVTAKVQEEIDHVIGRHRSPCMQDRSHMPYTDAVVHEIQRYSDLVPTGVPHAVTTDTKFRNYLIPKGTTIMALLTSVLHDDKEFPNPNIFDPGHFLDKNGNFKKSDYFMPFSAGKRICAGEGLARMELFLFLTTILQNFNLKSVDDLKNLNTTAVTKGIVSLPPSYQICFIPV
Method in brief: as §1

CYP 3A4 = biological target: T5, CYP 3A4 (Homo sapiens, UniProt P08684); assay: CYP inhibition in human liver microsomes, 3A4; format: in vitro ADME; conditions: pH 7.4, @ 10 μM concn
T5 construct: from tissue; host or cells: human liver microsomes
T5 sequence (P08684 whole entry): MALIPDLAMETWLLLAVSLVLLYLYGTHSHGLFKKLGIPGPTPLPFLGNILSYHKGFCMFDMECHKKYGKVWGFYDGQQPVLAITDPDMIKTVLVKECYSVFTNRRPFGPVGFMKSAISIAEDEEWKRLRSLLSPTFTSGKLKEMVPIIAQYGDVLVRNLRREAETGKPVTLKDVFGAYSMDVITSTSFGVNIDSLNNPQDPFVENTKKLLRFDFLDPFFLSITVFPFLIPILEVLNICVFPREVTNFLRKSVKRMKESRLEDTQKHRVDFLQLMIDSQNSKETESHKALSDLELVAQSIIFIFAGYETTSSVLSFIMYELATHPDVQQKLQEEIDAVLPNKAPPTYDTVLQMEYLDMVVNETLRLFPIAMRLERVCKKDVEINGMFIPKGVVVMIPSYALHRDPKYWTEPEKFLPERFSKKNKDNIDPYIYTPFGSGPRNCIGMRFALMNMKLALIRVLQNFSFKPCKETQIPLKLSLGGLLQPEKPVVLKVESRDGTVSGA
Method in brief: as §1

CYP 2C19 = biological target: T6, CYP 2C19 (Homo sapiens, UniProt P33261); assay: CYP inhibition in human liver microsomes, 2C19; format: in vitro ADME; conditions: pH 7.4, @ 10 μM concn
T6 construct: from tissue; host or cells: human liver microsomes
T6 sequence (P33261 whole entry): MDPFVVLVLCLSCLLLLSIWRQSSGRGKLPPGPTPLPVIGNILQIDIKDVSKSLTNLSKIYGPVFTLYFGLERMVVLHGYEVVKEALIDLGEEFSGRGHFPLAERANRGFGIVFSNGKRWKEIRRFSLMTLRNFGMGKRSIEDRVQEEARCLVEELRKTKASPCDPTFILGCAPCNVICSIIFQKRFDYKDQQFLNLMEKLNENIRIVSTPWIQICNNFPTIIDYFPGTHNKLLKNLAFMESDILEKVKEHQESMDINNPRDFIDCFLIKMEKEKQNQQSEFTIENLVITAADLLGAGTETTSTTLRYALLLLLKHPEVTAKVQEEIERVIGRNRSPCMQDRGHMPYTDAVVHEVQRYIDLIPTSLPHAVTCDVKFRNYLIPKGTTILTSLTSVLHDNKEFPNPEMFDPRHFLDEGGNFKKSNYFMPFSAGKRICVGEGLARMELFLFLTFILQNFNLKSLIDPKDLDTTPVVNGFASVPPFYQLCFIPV
Method in brief: as §1

T1 sequence (P11712 whole entry): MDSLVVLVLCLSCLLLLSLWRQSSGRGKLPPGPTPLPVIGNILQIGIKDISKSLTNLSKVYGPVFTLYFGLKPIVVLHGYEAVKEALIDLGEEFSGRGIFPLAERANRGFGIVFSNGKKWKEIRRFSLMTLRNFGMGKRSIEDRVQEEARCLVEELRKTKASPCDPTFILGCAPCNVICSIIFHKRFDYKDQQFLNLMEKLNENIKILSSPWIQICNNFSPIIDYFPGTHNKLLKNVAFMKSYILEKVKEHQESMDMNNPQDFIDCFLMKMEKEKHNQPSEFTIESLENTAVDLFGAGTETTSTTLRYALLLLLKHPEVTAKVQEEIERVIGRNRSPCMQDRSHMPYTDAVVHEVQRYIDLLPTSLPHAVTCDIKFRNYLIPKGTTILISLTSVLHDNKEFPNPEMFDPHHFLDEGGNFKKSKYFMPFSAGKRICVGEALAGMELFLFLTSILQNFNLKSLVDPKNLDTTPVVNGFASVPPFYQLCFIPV

| inhibition at 10 μM (CYP 2C9) [%] | inhibition at 10 μM (CYP 1A2) [%] | inhibition at 10 μM (CYP 2D6) [%] | inhibition at 10 μM (CYP 2C8) [%] | inhibition at 10 μM (CYP 3A4) [%] | inhibition at 10 μM (CYP 2C19) [%] | SMILES | % Inhibition in tumor volume, Day-16, in TMD-8 Xenografts Model (TMD-8 cells) [%] |
| --- | --- | --- | --- | --- | --- | --- | --- |
| < 50 | < 50 | < 50 | < 50 | > 50 | < 50 | C=CC(=O)N1CC2CC(n3nc(-c4ccc(NC(=O)c5ccccn5)cc4)c4c(N)ncnc43)CC2C1 (centres unmarked) [Compound 32, N-(4-(1-(2-acryloyloctahydrocyclopenta[c]pyrrol-5-yl)-4-amino-1H-pyrazolo[3,4-d]pyrimidin-3-yl)phenyl)picolinamide] | 56.1 ± 8.2 |
| < 50 | < 50 | < 50 | < 50 | < 50 | < 50 | C=CC(=O)N1CC2CC(n3nc(-c4ccc(C(=O)Nc5cc(C)ccn5)cn4)c4c(N)ncnc43)CC2C1 (centres unmarked) [Compound 42, 6-(1-(2-acryloyloctahydrocyclopenta[c]pyrrol-5-yl)-4-amino-1H-pyrazolo[3,4-d]pyrimidin-3-yl)-N-(4-methylpyridin-2-yl)nicotinamide] | 62.2 ± 8.8 |
| < 50 | < 50 | < 50 | < 50 | < 50 | < 50 | C=CC(=O)N1CC2CC(n3nc(-c4ccc(C(=O)N(C)c5cc(C)ccn5)cc4)c4c(N)ncnc43)CC2C1 (centres unmarked) [Compound 54, 4-(1-(2-acryloyloctahydrocyclopenta[c]pyrrol-5-yl)-4-amino-1H-pyrazolo[3,4-d]pyrimidin-3-yl)-N-methyl-N-(4-methylpyridin-2-yl)benzamide] | 92.1 ± 13.1 |

Further lines, the molecule ahead of its results:

| SMILES | inhibition at 10 μM (CYP 2C9) [%] | inhibition at 10 μM (CYP 1A2) [%] | inhibition at 10 μM (CYP 2D6) [%] | inhibition at 10 μM (CYP 2C8) [%] | inhibition at 10 μM (CYP 3A4) [%] | inhibition at 10 μM (CYP 2C19) [%] | % Inhibition in tumor volume, Day-16, in TMD-8 Xenografts Model (TMD-8 cells) [%] |
| --- | --- | --- | --- | --- | --- | --- | --- |
| C=CC(=O)N1CC2CC(n3nc(-c4ccc(-c5nnc(-c6cnccn6)s5)cc4)c4c(N)ncnc43)CC2C1 (centres unmarked) [Compound 46, 1-(5-(4-amino-3-(4-(5-(pyrazin-2-yl)-1,3,4-thiadiazol-2-yl)phenyl)-1H-pyrazolo[3,4-d]pyrimidin-1-yl)hexahydrocyclopenta[c]pyrrol-2(1H)-yl)prop-2-en-1-one] | < 50 | < 50 | < 50 | < 50 | < 50 | < 50 | 54.3 ± 9.1 |
| C=CC(=O)N1CC2CC(N3C(=O)N(c4ccc(Oc5ccccc5)cc4)C4C(N)=NC=NC43)CC2C1 (centres unmarked) [Compound 25, 9-(2-acryloyloctahydrocyclopenta[c]pyrrol-5-yl)-6-amino-7-(4-phenoxyphenyl)-5,7-dihydro-4H-purin-8(9H)-one] | < 50 | < 50 | < 50 | < 50 | < 50 | < 50 | 50.2 ± 10.1 |

From US9840509B2, “Heterocyclic compounds” (CADILA HEALTHCARE LIMITED, priority 2014, dated 2017)
